Measurements from patent US5045302A, “Ligands and cationic complexes thereof with technetium-99m” (priority 1988, dated 1991).

Test: Rat biodistribution of Tc-99m complexes

| Structure (SMILES) | Blood (2 min p.i.) | Heart (2 min p.i.) | Heart/Blood Counts/Gram Ratio (2 min p.i.) | Heart/Liver Counts/Gram Ratio (2 min p.i.) | Liver (2 min p.i.) | Blood (60 min p.i.) | Heart (60 min p.i.) | Heart/Blood Counts/Gram Ratio (60 min p.i.) | Heart/Liver Counts/Gram Ratio (60 min p.i.) | Liver (60 min p.i.) |
| --- | --- | --- | --- | --- | --- | --- | --- | --- | --- | --- |
| CCOCCP(CCCP(CCOCC)CCOCC)CCOCC [Compound 34] | 19.5 % Injected dose/organ | 0.41 % Injected dose/organ | 0.34 | 0.22 | 29.7 % Injected dose/organ | 4.56 % Injected dose/organ | 0.16 % Injected dose/organ | 0.52 | 0.21 | 10.9 % Injected dose/organ |
| COC(C)(C)CCP(CCP(CCC(C)(C)OC)CCC(C)(C)OC)CCC(C)(C)OC [Compound 16] | 11.4 % Injected dose/organ | 0.79 % Injected dose/organ | 1.01 | 0.58 | 19.2 % Injected dose/organ | 1.58 % Injected dose/organ | 0.54 % Injected dose/organ | 4.69 | 0.96 | 7.71 % Injected dose/organ |
| CCOCCCP(CCCOCC)CCP(CCCOCC)CCCOCC [Compound 4] | 7.46 % Injected dose/organ | 1.00 % Injected dose/organ | 1.96 | 0.81 | 18.8 % Injected dose/organ | 0.73 % Injected dose/organ | 0.96 % Injected dose/organ | 20.0 | 2.13 | 6.96 % Injected dose/organ |
| CCOC(CCP(CCC(OCC)OCC)CCP(CCC(OCC)OCC)CCC(OCC)OCC)OCC [Compound 20] | 7.14 % Injected dose/organ | 1.01 % Injected dose/organ | 1.95 | 0.50 | 24.50 % Injected dose/organ | 1.52 % Injected dose/organ | 0.81 % Injected dose/organ | 7.9 | 0.69 | 14.90 % Injected dose/organ |
| CCOC=CP(C=COCC)CCP(C=COCC)C=COCC [Compound 6] | 15.6 % Injected dose/organ | 0.58 % Injected dose/organ | 0.61 | 0.18 | 44.3 % Injected dose/organ | 3.26 % Injected dose/organ | 0.46 % Injected dose/organ | 2.2 | 0.19 | 30.6 % Injected dose/organ |
| CCOCCP(CCOCCF)CCP(CCOCC)CCOCCF (centres unmarked) [Compound 32] | 5.85 % Injected dose/organ | 0.85 % Injected dose/organ | 2.31 | 1.27 | 10.8 % Injected dose/organ | 0.38 % Injected dose/organ | 0.81 % Injected dose/organ | 33.2 | 7.46 | 1.78 % Injected dose/organ |
| COC(CCP(CCC(OC)OC)CCP(CCC(OC)OC)CCC(OC)OC)OC [Compound 19] | 18.8 % Injected dose/organ | 0.46 % Injected dose/organ | 0.37 | 1.29 | 3.27 % Injected dose/organ | 0.88 % Injected dose/organ | 0.03 % Injected dose/organ | 0.6 | 0.76 | 0.67 % Injected dose/organ |
| CCOCCP(CCOCC)CC(CP(CCOCC)CCOCC)OC [Compound 36] | 10.8 % Injected dose/organ | 1.05 % Injected dose/organ | 1.45 | 0.73 | 18.8 % Injected dose/organ | 2.18 % Injected dose/organ | 0.73 % Injected dose/organ | 5.69 | 1.62 | 6.64 % Injected dose/organ |
| COCC(COC)CP(CCP(CC(COC)COC)CC(COC)COC)CC(COC)COC [Compound 17] | 5.86 % Injected dose/organ | 1.14 % Injected dose/organ | 2.99 | 0.92 | 17.1 % Injected dose/organ | 1.03 % Injected dose/organ | 0.86 % Injected dose/organ | 13.9 | 1.59 | 7.88 % Injected dose/organ |

Further lines, results first:

| Blood (2 min p.i.) | Heart (2 min p.i.) | Heart/Blood Counts/Gram Ratio (2 min p.i.) | Heart/Liver Counts/Gram Ratio (2 min p.i.) | Liver (2 min p.i.) | Blood (60 min p.i.) | Heart (60 min p.i.) | Heart/Blood Counts/Gram Ratio (60 min p.i.) | Heart/Liver Counts/Gram Ratio (60 min p.i.) | Liver (60 min p.i.) | Structure (SMILES) |
| --- | --- | --- | --- | --- | --- | --- | --- | --- | --- | --- |
| 18.6 % Injected dose/organ | 0.37 % Injected dose/organ | 0.33 | 0.58 | 9.83 % Injected dose/organ | 1.14 % Injected dose/organ | 0.04 % Injected dose/organ | 0.5 | 0.26 | 1.95 % Injected dose/organ | C1OCC(CP(CCP(CC2COCO2)CC2COCO2)CC2COCO2)O1 (centres unmarked) [Compound 21] |
| 3.92 % Injected dose/organ | 1.82 % Injected dose/organ | 6.98 | 1.74 | 16.4 % Injected dose/organ | 0.55 % Injected dose/organ | 1.42 % Injected dose/organ | 39.7 | 2.62 | 8.56 % Injected dose/organ | C1COC(CP(CCP(CC2CCCO2)CC2CCCO2)CC2CCCO2)C1 (centres unmarked) [Compound 24] |
| 12.4 % Injected dose/organ | 0.54 % Injected dose/organ | 0.68 | 0.20 | 33.1 % Injected dose/organ | 1.63 % Injected dose/organ | 0.27 % Injected dose/organ | 2.6 | 0.37 | 8.85 % Injected dose/organ | CCOCP(CCP(COCC)COCC)COCC [Compound 5] |
| 10.4 % Injected dose/organ | 0.99 % Injected dose/organ | 1.20 | 0.79 | 15.7 % Injected dose/organ | 1.23 % Injected dose/organ | 1.00 % Injected dose/organ | 12.3 | 3.99 | 3.41 % Injected dose/organ | CC1(C)OCC(CP(CCP(CC2COC(C)(C)O2)CC2COC(C)(C)O2)CC2COC(C)(C)O2)O1 (centres unmarked) [Compound 22] |
| 6.88 % Injected dose/organ | 1.21 % Injected dose/organ | 3.05 | 0.84 | 25.0 % Injected dose/organ | 1.22 % Injected dose/organ | 0.99 % Injected dose/organ | 13.4 | 1.21 | 12.4 % Injected dose/organ | CCOCCP(CCOC(C)C)CCP(CCOCC)CCOC(C)C (centres unmarked) [Compound 31] |
